Consider 5 molecules from patent US20070259965A1, “Acyclic 1,3-Diamine And Uses Therefor” (SmithKline Beecham Corporation, priority 2004, published 2007).

Each structure is given as a SMILES string.

In one experiment the target is T1, TRPV4 channel receptors (Bos taurus, UniProt A0A8F4X677).
T1 construct: obtained using this method in bovine articular chondrocytes; endogenous in cells; host or cells: bovine articular chondrocytes (primary)
T1 sequence (A0A8F4X677 1-871): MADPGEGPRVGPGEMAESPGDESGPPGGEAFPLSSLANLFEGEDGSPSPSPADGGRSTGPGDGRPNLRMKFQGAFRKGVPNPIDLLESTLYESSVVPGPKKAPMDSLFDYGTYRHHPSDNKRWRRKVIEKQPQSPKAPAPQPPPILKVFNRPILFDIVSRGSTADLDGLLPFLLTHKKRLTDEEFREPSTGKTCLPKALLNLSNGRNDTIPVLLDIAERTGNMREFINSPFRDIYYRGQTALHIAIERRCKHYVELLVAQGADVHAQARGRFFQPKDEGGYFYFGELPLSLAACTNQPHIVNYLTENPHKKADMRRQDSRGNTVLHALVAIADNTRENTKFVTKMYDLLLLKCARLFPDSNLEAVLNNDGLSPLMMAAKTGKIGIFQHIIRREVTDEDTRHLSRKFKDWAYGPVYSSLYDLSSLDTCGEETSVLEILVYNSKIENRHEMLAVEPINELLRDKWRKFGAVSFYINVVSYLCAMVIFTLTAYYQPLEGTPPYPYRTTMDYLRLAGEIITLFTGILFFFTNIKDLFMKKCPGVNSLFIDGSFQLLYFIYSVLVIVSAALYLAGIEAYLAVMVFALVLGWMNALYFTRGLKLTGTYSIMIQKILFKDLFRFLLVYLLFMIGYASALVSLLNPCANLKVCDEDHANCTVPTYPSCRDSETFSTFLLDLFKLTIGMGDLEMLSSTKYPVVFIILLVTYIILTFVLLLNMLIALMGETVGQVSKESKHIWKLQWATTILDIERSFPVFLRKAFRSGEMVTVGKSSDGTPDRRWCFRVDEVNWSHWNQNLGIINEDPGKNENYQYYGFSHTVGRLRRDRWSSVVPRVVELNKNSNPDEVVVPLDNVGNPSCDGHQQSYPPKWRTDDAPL
Kind of experiment: Ca2+ influx by Fura-2 fluorescence on a FlexStation in bovine articular chondrocytes. In kind it is cell-based. As to conditions: Fura-2, FlexStation. An excerpt: Ca^2+influx mediated through TRPV4 channel receptors can be measured using articular chondrocytes from such species as, but not limited to, human, rat, canine, rabbit, monkey, and bovine, using standard techniques in the art such as, but not limited to, Fura-2 (Invitrogen/Molecular Probes, Eugene, Oreg.) fluorescence using a FlexStation (manufactured by Molecular Devices, Sunnyvale, Calif.). Table 1 lists biological data for several representative compounds obtained using this method in bovine articular chondrocytes.
As to `Cc1c(C(=O)N[C@@H](CC(C)C)C(=O)NCCCN(C)S(=O)(=O)c2ccccc2C#N)oc2cccnc12` [Example 73, N-{(1S)-1-[({3-[[(2-cyanophenyl)sulfonyl](methyl)amino]propyl}amino)carbonyl]-3-methylbutyl}-3-methylfuro[3,2-b]pyridine-2-carboxamide], the EC50 is 10 to 30 µM.

`CC(C)C[C@H](NC(=O)c1cc2ccccc2s1)C(=O)NCCCN(C)S(=O)(=O)c1sccc1C#N` [Example 13, N-{(1S)-1-[({3-[[(3-cyano-2-thienyl)sulfonyl](methyl)amino]propyl}amino)carbonyl]-3-methylbutyl}-1-benzothiophene-2-carboxamide] registered a concentration giving a half-maximal response (EC50) of 1.01 to 10 µM.

In turn, `CC(C)C[C@H](NC(=O)c1cc2ccccc2s1)C(=O)NCCCN(C)S(=O)(=O)c1ccc(F)cc1Cl` [Example 6, N-{(1S)-1-[({3-[[(2-chloro-4-fluorophenyl)sulfonyl](methyl)amino]propyl}amino)carbonyl]-3-methylbutyl}-1-benzothiophene-2-carboxamide] displayed an EC50 of 0.14 to 1 µM.

Another experiment deals with T2, TRPV4 channel receptor (Homo sapiens, UniProt Q9HBA0).
T2 construct: expressed in transfected cells; host or cells: HEK cells
T2 sequence (Q9HBA0 whole entry): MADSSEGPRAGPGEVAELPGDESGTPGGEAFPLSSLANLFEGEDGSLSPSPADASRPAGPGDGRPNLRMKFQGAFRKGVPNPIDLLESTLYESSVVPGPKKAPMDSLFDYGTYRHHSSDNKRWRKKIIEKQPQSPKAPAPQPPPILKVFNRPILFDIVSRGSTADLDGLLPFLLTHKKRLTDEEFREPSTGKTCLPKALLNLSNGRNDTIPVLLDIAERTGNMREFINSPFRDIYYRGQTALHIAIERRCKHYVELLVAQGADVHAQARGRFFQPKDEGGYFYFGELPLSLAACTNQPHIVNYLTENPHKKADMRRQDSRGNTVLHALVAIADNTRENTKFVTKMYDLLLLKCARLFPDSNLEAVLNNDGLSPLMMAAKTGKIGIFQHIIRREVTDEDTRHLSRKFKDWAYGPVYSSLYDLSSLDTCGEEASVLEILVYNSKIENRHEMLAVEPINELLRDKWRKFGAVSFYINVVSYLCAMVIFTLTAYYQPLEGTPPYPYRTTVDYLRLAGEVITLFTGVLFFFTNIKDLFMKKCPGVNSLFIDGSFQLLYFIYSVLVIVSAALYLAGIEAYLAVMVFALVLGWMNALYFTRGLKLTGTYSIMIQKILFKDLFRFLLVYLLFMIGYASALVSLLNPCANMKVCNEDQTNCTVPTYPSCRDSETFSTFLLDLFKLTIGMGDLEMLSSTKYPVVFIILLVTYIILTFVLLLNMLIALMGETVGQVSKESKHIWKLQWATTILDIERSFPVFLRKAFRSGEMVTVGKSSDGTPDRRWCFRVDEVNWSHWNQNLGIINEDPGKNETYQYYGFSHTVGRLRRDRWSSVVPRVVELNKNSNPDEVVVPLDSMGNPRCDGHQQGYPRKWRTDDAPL
The experiment is described as follows: FLIPR assay using TRPV4 expressing HEK cells. In kind it is cell-based. To be noted: FLIPR method; pEC50 = −log10(EC50 μM). An excerpt: Other techniques used to measure TRPV4 channel receptor activation in chondrocytes include, but are not limited to: FLIPR assay, measuring a compound's capability to reduce the amount of ADAMTSs produced and/or released in response to a catabolic stimulus by a cell comprising a TRPV4 channel receptor; measuring a compound's capability to reduce the amount of MMPs produced and/or released in response to a catabolic stimulus by a cell comprising a TRPV4 channel receptor; measuring a compound's capability to effect the amount of nitric oxide (NO) produced in response to a catabolic stimulus by a cell comprising a TRPV4 channel receptor; and measuring a compound's capability to attenuate the inhibition of matrix synthesis in response to a catabolic stimulus by a cell comprising a TRPV4 channel receptor .
All exemplary compounds of the present invention were assessed using at least one of the biological assays presented above. Compounds presented in the Examples had pEC50 values between about 4.5 to about 7.0 as measured by Flex Station in using bovine articular cartilage and EC50 values of about 0.1 μM to about 30 μM as measured by FLIPR assay using TRPV4 expressing HEK cells.
Turning to `CC(C)C[C@H](NC(=O)c1cc2ccccc2s1)C(=O)NCCCN(C)S(=O)(=O)c1c(Cl)cc(Cl)cc1Cl` [Example 17, N-((1S)-3-methyl-1-{[(3-{methyl[(2,4,6-trichlorophenyl)sulfonyl]amino}propyl)amino]carbonyl}butyl)-1-benzothiophene-2-carboxamide], the EC50 is 1 to 7.94 µM.

For `CC(C)C[C@H](NC(=O)c1cc2ccccc2s1)C(=O)NCCCN(C)S(=O)(=O)c1ccc(F)cc1Cl` [Example 6, N-{(1S)-1-[({3-[[(2-chloro-4-fluorophenyl)sulfonyl](methyl)amino]propyl}amino)carbonyl]-3-methylbutyl}-1-benzothiophene-2-carboxamide], the EC50 is 0.1 to 0.794 µM.

In turn, `CC(C)C[C@H](NC(=O)c1cn2nc(Cl)ccc2n1)C(=O)NCCCN(C)S(=O)(=O)c1ccccc1C#N` [Example 71, 6-chloro-N-{(1S)-1-[({3-[[(2-cyanophenyl)sulfonyl](methyl)amino]propyl}amino)carbonyl]-3-methylbutyl}imidazo[1,2-b]pyridazine-2-carboxamide] showed an EC50 of 10 to 20 µM.

What is called EC50 is the concentration that produces a half-maximal response. Lower therefore signals an effect from little substance.
